Assays:
[1] = exchange of fragrant molecule for odor molecule in cucurbit[7]uril complex, evaluated by 1H-NMR; format: binding
Procedure: Cucurbit[7]uril was dissolved in distilled water to obtain a 2 mM cucurbit[7]uril aqueous solution. Ethyl butyrate (2 mM), which is a fragrant material, was added to the solution to obtain a complex (cucurbit[7]uril:ethyl butyrate=1:1). The bonding of diallyldisulfide with cucurbituril according to the addition of diallyldisulfide, which is an odor material, and the release of ethyl butyrate according to the addition of diallyldisulfide were evaluated comparing the 1H-NMR peak of the complex after the addition of diallyldisulfide with the 1H-NMR peak of the complex before the addition of diallyldisulfide.
(§1) Cucurbit[7]uril was dissolved in distilled water to obtain a 4 mM cucurbit[7]uril aqueous solution. Menthol (4 mM), which is a fragrant material, was added to the solution to obtain a complex (cucurbit[7]uril:menthol=1:1). The bonding of diaminohexane with cucurbituril according to the addition of diaminohexane, which is an odor material, and the release of menthol according to the addition of diaminohexane were evaluated comparing the 1H-NMR peak of the complex after the addition of diaminohexane with the 1H-NMR peak of the complex before the addition of diaminohexane.
as §1, with “Hexanal” for “Menthol”, “(cucurbit[7]uril:hexanal=1:1).” for “(cucurbit[7]uril:menthol=1:1).”, “hexanal” for “menthol”

[2] = complex formation of cucurbituril homologues with menthol, analyzed by 1H-NMR; format: binding; settings: slurry with 11.8 mg menthol and 0.5 mL distilled water, molar ratio 1:1, dried complex
Procedure: A complex was prepared by mixing 100 mg of cucurbit[7]uril and 11.8 mg of menthol at a molar ratio of 1:1. 79.5 mg of cucurbit[6]uril and 118.3 mg of cucurbit[8]uril were respectively put into two mortars, and 11.8 mg of menthol was added to each of the mortars. 0.5 mL of distilled water was added to form a slurry, and then the slurry was stirred for 10 minutes using a pestle to prepare a complex. The complex was dried in an oven at […] for 6 hours. The dried complex was analyzed by 1H-NMR.

[3] = cited from earlier work

CC1CCC(C(C)C)C(O)C1 (stereo not shown) [menthol]
release of menthol from the complex (FIG. 4) ([1]; cucurbit[7]uril:menthol=1:1, 4 mM aqueous solution, diaminohexane added): released from the complex

O=C1N2CN3C(=O)N4CN5C(=O)N6CN7C(=O)N8CN9C(=O)N%10CN%11C(=O)N%12CN%13C(=O)N%14CN%15C(=O)N%16CN1C1C2N2CN%17C(=O)N(CN%18C(=O)N(CN%19C(=O)N(CN%20C(=O)N(CN%21C(=O)N(CN%22C(=O)N(CN%23C(=O)N(CN1C2=O)C%16C%15%23)C%14C%13%22)C%12C%11%21)C%10C9%20)C8C7%19)C6C5%18)C4C3%17 (stereo not shown) [cucurbit[8]uril]
complex formation with menthol (FIG. 2) [2]: weakly makes a complex with menthol

O=C1N2CN3C(=O)N4CN5C(=O)N6CN7C(=O)N8CN9C(=O)N%10CN%11C(=O)N%12CN1C1C2N2CN%13C(=O)N(CN%14C(=O)N(CN%15C(=O)N(CN%16C(=O)N(CN%17C(=O)N(CN1C2=O)C%12C%11%17)C%10C9%16)C8C7%15)C6C5%14)C4C3%13 (stereo not shown) [cucurbit[6]uril]
complex formation with menthol (FIG. 2) [2]: barely makes a complex with menthol

C=CCSSCC=C [diallydisulfide, diallyldisulfide]
bonding of diallyldisulfide with cucurbituril (FIG. 3) ([1]; added to cucurbit[7]uril:ethyl butyrate=1:1 complex, 2 mM aqueous solution): makes a complex with cucurbituril

CCCCCC=O [hexanal]
release of hexanal from the complex (FIG. 5) ([1]; cucurbit[7]uril:hexanal=1:1, 4 mM aqueous solution, diaminohexane added): released from the complex

CCCC(=O)OCC [ethyl butyrate]
release of ethyl butyrate from the complex (FIG. 3) ([1]; cucurbit[7]uril:ethyl butyrate=1:1, 2 mM aqueous solution, diallyldisulfide added): released from the complex

NCCCCCCN [diaminohexane]
bonding of diaminohexane with cucurbituril (FIG. 5) ([1]; added to cucurbit[7]uril:hexanal=1:1 complex, 4 mM aqueous solution): makes a complex with cucurbituril | bonding of diaminohexane with cucurbituril (FIG. 4) ([1]; added to cucurbit[7]uril:menthol=1:1 complex, 4 mM aqueous solution): makes a complex with cucurbituril

cucurbit[7]uril
solubility in water [3]: 2˜3×10^−2 M | complex formation with menthol (FIG. 2) [2]: strongly makes a complex with menthol
